Measurements from patent US8415376B2, “Inhibitors of PI3 kinase” (Amgen Inc., priority 2008, dated 2013).

Tests used:
[1] = biological target: T1, PI3Kα (Homo sapiens, UniProt P42336); assay: In vitro PI3 kinase enzyme assay (PI3K ATP loss), alpha; assay type: biochemical; conditions: average if run more than once; read-out: ATP Loss (PBKα) IC50 μM (Avg)
T1 construct: Full length p110 subunits of PI3K α, β and δ, N-terminally labeled with polyHis tag; polyHis (N); made in house; host or cells: Sf9 insect cells (baculovirus)
T1 sequence (P42336 whole entry): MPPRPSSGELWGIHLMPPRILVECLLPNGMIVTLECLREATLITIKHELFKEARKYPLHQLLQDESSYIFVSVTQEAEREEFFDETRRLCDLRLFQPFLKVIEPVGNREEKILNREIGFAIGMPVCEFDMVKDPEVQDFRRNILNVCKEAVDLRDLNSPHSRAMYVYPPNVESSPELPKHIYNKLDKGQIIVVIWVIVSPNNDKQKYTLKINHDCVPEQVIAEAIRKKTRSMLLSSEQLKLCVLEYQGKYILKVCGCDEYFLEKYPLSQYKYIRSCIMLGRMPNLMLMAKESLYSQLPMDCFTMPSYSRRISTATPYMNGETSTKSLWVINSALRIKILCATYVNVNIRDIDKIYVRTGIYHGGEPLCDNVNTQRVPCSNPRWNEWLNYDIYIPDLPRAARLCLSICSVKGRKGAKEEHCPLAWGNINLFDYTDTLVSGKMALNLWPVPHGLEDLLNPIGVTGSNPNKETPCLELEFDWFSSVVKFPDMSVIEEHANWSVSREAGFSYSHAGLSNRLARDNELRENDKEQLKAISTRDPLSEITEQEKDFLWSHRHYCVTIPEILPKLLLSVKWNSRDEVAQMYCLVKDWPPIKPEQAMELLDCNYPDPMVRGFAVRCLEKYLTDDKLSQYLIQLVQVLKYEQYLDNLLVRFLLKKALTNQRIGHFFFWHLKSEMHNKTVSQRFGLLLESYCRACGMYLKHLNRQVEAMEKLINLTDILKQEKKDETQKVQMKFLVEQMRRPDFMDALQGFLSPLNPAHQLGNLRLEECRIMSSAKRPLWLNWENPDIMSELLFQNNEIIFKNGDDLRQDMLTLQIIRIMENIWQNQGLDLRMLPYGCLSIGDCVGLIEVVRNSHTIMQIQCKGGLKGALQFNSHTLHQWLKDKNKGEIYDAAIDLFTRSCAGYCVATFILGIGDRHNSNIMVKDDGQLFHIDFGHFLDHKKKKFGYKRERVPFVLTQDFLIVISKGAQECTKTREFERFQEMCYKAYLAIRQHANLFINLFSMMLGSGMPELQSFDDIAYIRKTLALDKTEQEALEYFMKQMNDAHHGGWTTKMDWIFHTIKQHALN
T1 sequence (P27986 whole entry partner): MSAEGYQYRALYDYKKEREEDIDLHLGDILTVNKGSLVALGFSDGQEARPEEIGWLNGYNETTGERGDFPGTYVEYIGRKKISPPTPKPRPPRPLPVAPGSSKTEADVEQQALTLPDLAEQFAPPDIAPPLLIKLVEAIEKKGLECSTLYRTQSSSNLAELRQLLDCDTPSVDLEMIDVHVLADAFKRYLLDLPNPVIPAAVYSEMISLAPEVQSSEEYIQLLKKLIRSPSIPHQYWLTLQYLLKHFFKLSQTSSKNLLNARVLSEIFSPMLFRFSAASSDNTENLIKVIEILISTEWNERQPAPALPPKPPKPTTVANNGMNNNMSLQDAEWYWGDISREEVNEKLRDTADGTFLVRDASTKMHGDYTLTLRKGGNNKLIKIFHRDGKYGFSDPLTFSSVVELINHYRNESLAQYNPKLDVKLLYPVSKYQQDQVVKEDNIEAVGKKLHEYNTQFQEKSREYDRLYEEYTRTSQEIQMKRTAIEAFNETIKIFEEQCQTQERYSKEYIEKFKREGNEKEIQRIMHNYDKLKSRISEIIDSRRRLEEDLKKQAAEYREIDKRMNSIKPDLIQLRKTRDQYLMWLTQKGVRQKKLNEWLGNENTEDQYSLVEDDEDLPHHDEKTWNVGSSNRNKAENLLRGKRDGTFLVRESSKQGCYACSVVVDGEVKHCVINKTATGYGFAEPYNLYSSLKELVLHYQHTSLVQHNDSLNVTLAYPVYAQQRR
Procedure: (§1) Full length p110 subunits of PI3K α, β and δ, N-terminally labeled with polyHis tag, can be co-expressed with p85 with Baculo virus expression vectors in sf9 insect cells. P110/p85 heterodimers can be purified by sequential Ni-NTA, Q-HP, Superdex-100 chromatography. Purified α, β and δ isozymes can be stored at −20° C. in 20 mM Tris, pH 8, 0.2M NaCl, 50% glycerol, 5 mM DTT, 2 mM Na cholate. […] The γ isozyme can be purified by sequential Ni-NTA, Superdex-200, Q-HP chromatography. The γ isozyme can be stored frozen at −80° C. in NaH2PO4, pH 8, 0.2M NaCl, 1% ethylene glycol, 2 mM β-mercaptoethanol.
(§2) In Vitro PI3 Kinase Enzyme Assays (PI3K Atploss)
(§3) PI3K enzyme assays (alpha, beta, delta and gamma) can be performed in 25 μL with the above final concentrations of components in white polyproplyene plates. Phosphatidyl inositol phosphoacceptor, PtdIns(4,5)P2 (eg. P4508) can be obtained from Echelon Biosciences, Salt Lake City, Utah. […] Test compounds can be dissolved in DMSO and diluted with three-fold serial dilutions. The compound in DMSO (1 μL) may be added per test well, and the inhibition relative to reactions containing no compound, with and without enzyme can be determined After assay incubation at RT, the reaction can be stopped and residual ATP can be determined by addition of an equal volume of a commercial ATP bioluminescence kit (Perkin Elmer EasyLite, Perkin Elmer, Waltham, Mass.) according to the manufacturer's instructions, and detected using an Analyst GT luminometer.

[2] = biological target: T2, PI3Kβ (Homo sapiens, UniProt P42338); assay: In vitro PI3 kinase enzyme assay (PI3K ATP loss), beta; assay type: biochemical; conditions: average if run more than once
T2 construct: Full length p110 subunits of PI3K α, β and δ, N-terminally labeled with polyHis tag; polyHis (N); made in house; host or cells: Sf9 insect cells (baculovirus)
T2 sequence (P42338 whole entry): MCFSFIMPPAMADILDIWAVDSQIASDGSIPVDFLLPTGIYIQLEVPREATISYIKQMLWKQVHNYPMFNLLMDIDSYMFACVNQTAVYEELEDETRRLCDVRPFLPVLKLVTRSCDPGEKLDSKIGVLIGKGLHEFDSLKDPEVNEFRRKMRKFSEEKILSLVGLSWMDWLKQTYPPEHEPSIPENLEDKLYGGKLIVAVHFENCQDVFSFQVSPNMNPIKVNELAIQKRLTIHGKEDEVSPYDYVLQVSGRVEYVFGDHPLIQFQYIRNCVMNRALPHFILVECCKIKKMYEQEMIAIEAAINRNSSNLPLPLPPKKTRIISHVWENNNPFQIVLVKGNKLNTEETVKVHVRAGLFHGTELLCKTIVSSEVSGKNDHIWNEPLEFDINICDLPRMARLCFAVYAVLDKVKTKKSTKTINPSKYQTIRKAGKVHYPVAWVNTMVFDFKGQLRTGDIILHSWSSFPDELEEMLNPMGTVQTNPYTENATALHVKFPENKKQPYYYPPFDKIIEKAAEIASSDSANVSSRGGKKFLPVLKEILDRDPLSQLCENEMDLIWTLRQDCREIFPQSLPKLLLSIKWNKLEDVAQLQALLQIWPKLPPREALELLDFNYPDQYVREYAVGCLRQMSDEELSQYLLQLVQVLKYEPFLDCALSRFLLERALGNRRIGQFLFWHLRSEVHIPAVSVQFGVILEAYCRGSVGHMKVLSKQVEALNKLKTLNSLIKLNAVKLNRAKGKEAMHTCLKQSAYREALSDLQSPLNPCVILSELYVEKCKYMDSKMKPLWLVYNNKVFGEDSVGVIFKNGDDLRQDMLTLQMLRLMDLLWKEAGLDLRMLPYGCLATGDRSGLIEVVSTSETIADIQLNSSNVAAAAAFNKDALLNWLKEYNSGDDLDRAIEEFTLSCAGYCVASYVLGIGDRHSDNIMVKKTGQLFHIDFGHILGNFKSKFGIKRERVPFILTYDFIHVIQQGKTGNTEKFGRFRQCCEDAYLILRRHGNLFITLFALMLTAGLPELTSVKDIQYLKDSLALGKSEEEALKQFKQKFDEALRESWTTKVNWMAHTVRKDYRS
T2 sequence (P27986 whole entry partner): as the sequence (P27986 whole entry partner) above
Procedure: as §1, §2, §3

Structure (SMILES) | IC50 [1] | IC50 [2]
CN(C)c1cc(-c2ccc3ncccc3c2)cnc1Cl [Example 13, 2-chloro-N,N-dimethyl-5-(6-quinolinyl)-3-pyridinamine] | 1.12 µM | –
O=S(=O)(Nc1cc(-c2ccc3nccc(N4CCN(Cc5ccccc5)CC4)c3c2)cnc1Cl)c1ccc(F)cc1 [Example 28, N-(5-(4-(4-benzyl-1-piperazinyl)-6-quinolinyl)-2-chloro-3-pyridinyl)-4-fluorobenzenesulfonamide] | 0.0062 µM | 0.0339 µM
O=S(=O)(Nc1cc(-c2ccc3nnccc3c2)cnc1Cl)c1ccc(F)cc1 [Example 37, N-(2-chloro-5-(6-cinnolinyl)-3-pyridinyl)-4-fluorobenzenesulfonamide] | 0.0783 µM | 0.212 µM
CC(=O)OCc1cc(-c2ccc3nccc(N4CCOCC4)c3c2)cnc1Cl [Example 15, (2-chloro-5-(4-(4-morpholinyl)-6-quinolinyl)-3-pyridinyl)methyl acetate] | 1.39 µM | 3.67 µM
OCc1cc(-c2ccc3nccc(N4CCOCC4)c3c2)cnc1Cl [Example 14, (2-chloro-5-(4-(4-morpholinyl)-6-quinolinyl)-3-pyridinyl)methanol] | 1.13 µM | 5.42 µM
O=S(=O)(Nc1cc(-c2ccc3cccnc3c2)cnc1Cl)c1ccc(F)cc1 [Example 18, N-(2-chloro-5-(7-quinolinyl)-3-pyridinyl)-4-fluorobenzenesulfonamide] | 1.97 µM | 7.7 µM
NCc1cc(-c2ccc3nccc(N4CCOCC4)c3c2)cnc1Cl [Example 16, 1-(2-chloro-5-(4-(4-morpholinyl)-6-quinolinyl)-3-pyridinyl)methanamine] | 3.53 µM | 26.7 µM
CC(C)(C)C(=O)NCc1cc(-c2ccc3nccc(N4CCOCC4)c3c2)cnc1Cl [Example 17, N-((2-chloro-5-(4-(4-morpholinyl)-6-quinolinyl)-3-pyridinyl)methyl)-2,2-dimethylpropanamide] | 3.11 µM | 27.4 µM

More lines, now with the values ahead:

IC50 [1] | IC50 [2] | Structure (SMILES)
0.294 µM | 4.22 µM | CC(c1ccccc1)N1CCN(c2ccnc3ccc(-c4cnc(Cl)c(N(C)C)c4)cc23)CC1 (centres unmarked) [Example 53, 2-chloro-N,N-dimethyl-5-(4-(4-(1-phenylethyl)-1-piperazinyl)-6-quinolinyl)-3-pyridinamine]
1.9 µM | 4.12 µM | O=S(=O)(Nc1cc(-c2cccc3cnncc23)cnc1Cl)c1ccc(F)cc1 [Example 39, N-(2-chloro-5-(5-phthalazinyl)-3-pyridinyl)-4-fluorobenzenesulfonamide]
0.899 µM | 0.698 µM | O=S(=O)(Nc1cc(-c2ccc3cnncc3c2)cnc1Cl)c1ccc(F)cc1 [Example 40, N-(2-chloro-5-(6-phthalazinyl)-3-pyridinyl)-4-fluorobenzenesulfonamide]
0.179 µM | 2.46 µM | CN(C)c1cc(-c2ccc3nccc(N4CCOCC4)c3c2)cnc1Cl [Example 51, 2-chloro-N,N-dimethyl-5-(4-(4-morpholinyl)-6-quinolinyl)-3-pyridinamine]
0.43 µM | 2.24 µM | CN(C)c1cc(-c2ccc3nccc(Cl)c3c2)cnc1Cl [Example 52, 2-chloro-5-(4-chloro-6-quinolinyl)-N,N-dimethyl-3-pyridinamine]
2.84 µM | 5.61 µM | O=S(=O)(Nc1cc(-c2cnc3ncccc3c2)cnc1Cl)c1ccc(F)cc1 [Example 44, N-(2-chloro-5-(1,8-naphthyridin-3-yl)-3-pyridinyl)-4-fluorobenzenesulfonamide]
0.0954 µM | 2.49 µM | CNc1ccc2cc(-c3cnc(Cl)c(NS(=O)(=O)c4ccc(OC)cc4)c3)ccc2n1 [Example 48, N-(2-chloro-5-(2-(methylamino)-6-quinolinyl)-3-pyridinyl)-4-methoxybenzenesulfonamide]
